From ChEMBL document CHEMBL3272216 (J Med Chem, 1977)
Where a SMILES comes first, the peptide text is derived from it. Bridges are numbered along the chain shown (N, C = ends). [ ]: non-standard residue; d: D form. pGlu = O=C1CC[C@@H](C(=O)O)N1

Legend:
Rattus norvegicus [1] = assay: Induction of hypothermia in cold-exposed Sprague-Dawley rat compound administered intracisternally measured 60 mins post dose relative to neurotensin; format: functional
[2] = Retention time of the compound in 0.01 M NH4OAc buffer at pH 4.5 by HPLC analysis; format: physicochemical
Rattus norvegicus [3] = species: Rattus norvegicus; assay: Binding affinity to neurotensin receptor in rat mast cells at 1 ng to 10 ug after 15 mins relative to neurotensin; format: cell-based

Row | SMILES | Ratio (Rattus norvegicus [1]) | Retention_time [2] | Ratio (Rattus norvegicus [3])
1 | CC[C@H](C)[C@@H]1NC(=O)[C@H](Cc2ccc(O)cc2)NC(=O)[C@@H]2CCCN2C(=O)[C@H](CCCNC(=N)N)NC(=O)[C@H](CCCNC(=N)N)NC(=O)[C@@H]2CCCN2C(=O)[C@H](CCCCN)NC(=O)[C@H](CC(N)=O)NC(=O)[C@H](CCC(=O)O)NC(=O)[C@H](Cc2ccc(O)cc2)NC(=O)[C@@H](NC(=O)[C@@H]2CCC(=O)N2)CSSC[C@@H](C(=O)O)NC1=O ([pGlu]CYENKPRRPYIC-OH; disulfide 2-13) | 100 | 5.3 min | 3.4
2 | CC[C@H](C)[C@H](NC(=O)[C@@H](Cc1ccccc1)NC(=O)[C@@H]1CCCN1C(=O)[C@H](CCCN=C(N)N)NC(=O)[C@H](CCCN=C(N)N)NC(=O)[C@@H]1CCCN1C(=O)[C@H](CCCCN)NC(=O)[C@H](CC(N)=O)NC(=O)[C@H](CCC(=O)O)NC(=O)[C@H](Cc1ccc(O)cc1)NC(=O)[C@H](CC(C)C)NC(=O)[C@@H]1CCC(=O)N1)C(=O)N[C@@H](CC(C)C)C(=O)O | 1000 | 5.3 min | 0.64
3 | CC[C@H](C)[C@H](NC(=O)[C@@H](CC(C)C)NC(=O)[C@@H]1CCCN1C(=O)[C@H](CCCNC(=N)N)NC(=O)[C@H](CCCNC(=N)N)NC(=O)[C@@H]1CCCN1C(=O)[C@H](CCCCN)NC(=O)[C@H](CC(N)=O)NC(=O)[C@H](CCC(=O)O)NC(=O)[C@H](Cc1ccc(O)cc1)NC(=O)[C@H](CC(C)C)NC(=O)[C@@H]1CCC(=O)N1)C(=O)N[C@@H](CC(C)C)C(=O)O | 30 | 5.2 min | –
4 | CC[C@H](C)[C@H](NC(=O)[C@@H](CCCCN)NC(=O)[C@@H]1CCCN1C(=O)[C@H](CCCNC(=N)N)NC(=O)[C@H](CCCNC(=N)N)NC(=O)[C@@H]1CCCN1C(=O)[C@H](CCCCN)NC(=O)[C@H](CC(N)=O)NC(=O)[C@H](CCC(=O)O)NC(=O)[C@H](Cc1ccc(O)cc1)NC(=O)[C@H](CC(C)C)NC(=O)[C@@H]1CCC(=O)N1)C(=O)N[C@@H](CC(C)C)C(=O)O | <1 | 6.4 min | 3.4
5 | CC[C@@H](C)[C@H](NC(=O)[C@H](Cc1ccc(O)cc1)NC(=O)[C@@H]1CCCN1C(=O)[C@H](CCCNC(=N)N)NC(=O)[C@@H](N)CCCNC(=N)N)C(=O)N[C@@H](CC(C)C)C(=O)O | – | – | 67
6 | CC[C@H](C)[C@H](NC(=O)[C@H](Cc1ccc(O)cc1)NC(=O)[C@@H]1CCCN1C(=O)[C@@H](N)CCCN=C(N)N)C(=O)N[C@@H](CC(C)C)C(=O)O | 20 | – | 76
7 | CC[C@H](C)[C@H](NC(=O)[C@H](Cc1ccccc1)NC(=O)[C@@H]1CCCN1C(=O)[C@H](CCCN=C(N)N)NC(=O)[C@H](CCCN=C(N)N)NC(=O)[C@@H]1CCCN1C(=O)[C@H](CCCCN)NC(=O)[C@H](CC(N)=O)NC(=O)[C@H](CCC(=O)O)NC(=O)[C@H](Cc1ccc(O)cc1)NC(=O)[C@H](CC(C)C)NC(=O)[C@@H]1CCC(=O)N1)C(=O)N[C@@H](CC(C)C)C(=O)O | 100 | 9.7 min | 100
8 | CC[C@H](C)[C@H](NC(=O)[C@H](Cc1ccc(O)cc1)NC(=O)[C@@H]1CCCN1C(=O)[C@@H](N)CCCNC(=N)N)C(=O)N[C@@H](CC(C)C)C(=O)O | – | 10.4 min | –
9 | CC[C@H](C)[C@H](NC(=O)[C@H](Cc1ccc(O)cc1)NC(=O)[C@@H]1CCCN1C(=O)[C@H](CCCNC(=N)N)NC(=O)[C@@H](N)CCCNC(=N)N)C(=O)N[C@@H](CC(C)C)C(=O)O [listing 1 of 2 here] | – | 8.2 min | –
10 | CC[C@H](C)[C@H](NC(=O)[C@H](Cc1ccc(O)cc1)NC(=O)[C@@H]1CCCN1C(=O)[C@H](CCCNC(=N)N)NC(=O)[C@@H](N)CCCNC(=N)N)C(=O)N[C@@H](CC(C)C)C(=O)O [listing 2 of 2 here] | 25 | – | –
11 | CC[C@H](C)[C@H](NC(=O)[C@H](Cc1ccc(O)cc1)NC(=O)[C@@H]1CCCN1C(=O)[C@H](CCCNC(=N)N)NC(=O)[C@H](CCCNC(=N)N)NC(=O)[C@@H]1CCCN1C(=O)[C@H](CCCCN)NC(=O)[C@H](CC(N)=O)NC(=O)[C@H](CCC(=O)O)NC(=O)[C@H](Cc1ccccc1)NC(=O)[C@H](CC(C)C)NC(=O)[C@@H]1CCC(=O)N1)C(=O)N[C@@H](CC(C)C)C(=O)O | 100 | 4.9 min | 102
